Laboratory results: patent US7682602B2, “Near-infrared fluorescent contrast medium” (Konica Minolta Medical & Graphic, Inc., priority 2003, dated 2010)

Tests used:
[1] = Discharge in vitro of cyanine compound (urethra catheter, liquid chromatograph); design: species or system mouse; conditions: sum of discharge over one week after dosage; relative value, amount in vivo after dosage = 100
Method: Discharge in vitro of a cyanine compound of contrast medium material was determined by fitting a urethra with a catheter and summing up the discharge over one week after the dosage, and represented by a relative value, based on the amount in vivo of the cyanine compound after the dosage thereof being 100. The discharge of a cyanine compound was determined using liquid chromatograph 2010 (available from Shimazu Corporation).

[2] = tested on: tumor tissue of breast cancer mouse implanted in BALB/c nude mouse; assay: Fluorescent contrast imaging test in tumor-implanted nude mice; assay type: in vivo; design: key: A: fluorescence was clearly observed in the tumor portion; B: fluorescence was also observed in the normal portion but the tumor portion was discernible; C: the normal portion and the tumor portion emitted slight fluorescence but the tumor portion was barely discernible; D: slight fluorescence was emitted overall and the tumor portion was not discernible from the normal portion; E: no fluorescence was observed; conditions: 3 mg/kg through lactiferous duct and adenoid lobe; whole-body fluorescent imaging 30 min., 12 hr. and 24 hr. after dosage; fluorescence of tumor portion
Method: Model mice having breast cancer were prepared by dosing a carcinogene, 7,12-dimethylbenz[a]anthracene (DMBA) to an acceleratedly aged mice, SAMP6/Ta type mouse as one system of a so-called SAM type to cause breast cancer. Carcinogenesis was carried out in accordance with the description of JP-A No. 2003-033125. To each of 20 SAMP6/Ta type mice, DMBA was dosed in an amount of 0.5 mg/mouse·week, a total of six times. Solid high-protein, high-calorie CA-1 (available from CLEA Japan Inc.) was fed to the mice. After completion of the 6th dose of the carcinogenic substance, the dosage was stopped until the 20th month calculated from the 1st month. Breast cancer and lung metastasis were examined in the manner of pathologic histology.
A segment (2 mm×2 mm square) of tumor tissue of the foregoing breast cancer mouse was implanted below the skin of the breast in the left chest of a BALB/c nude mouse (5 weeks old, CLEA Japan Inc.). After 10 days, when the tumor has grown up to a diameter of approximately 5 mm, the foregoing mice were subjected to the fluorescent contrast imaging test. A titanium/sapphire laser was used as an exciting light source. The test mice in a darkened box were uniformly exposed to laser light using a ring-type light guide (available from Sumita Optical Glass Inc.) so that the dispersion of exposure fell within 2%. The irradiation output was adjusted so as to be about 38 μW/cm^2 near the skin surface of the mice. Fluorescence was emitted by excitation at the absorption peak wavelength of the respective compounds and fluorescent radiation from the mice was subjected to detection and imaging by using a CCD camera (C4880, produced by Hamamatsu Photonics K.K.) together with a filter to cut reflection of incident light at the shorter wavelength side. The exposure time was adjusted in accordance with the fluorescence intensity of the respective compounds. As to the tumor portion, the image obtained by attaching a marker onto the skin surface and observing it under white light was superposed onto the image obtained by removing the marker, followed by exposure to a laser light in the dark and evaluation was made with respect to fluorescence emitted from the tumor portion.
Each of the test compounds shown in Table 1 was dissolved in a normal saline solution (at 0.5 mg/ml) and dosed to the mice through a lactiferous duct and an adenoid lobe. The dose was 3 mg/kg for the respective test compounds. […]

[3] = Water-solubility test of compound in normal saline solution; assay type: physicochemical; conditions: saline or isotonic, thermodynamic from solid, 0.5 mg in 1 ml normal saline solution, 42° C., precipitation or deposits
Method: In 1 ml of normal saline solution of an official grade was dissolved 0.5 mg of a dye (i.e., the cyanine compound to be tested) to make a solution.

Row | Compound | Discharge in vitro (%) [1] [%] | Contrast Imaging [2] | solubility at 1 week [3] [µg/mL]
1 | CC12CCC(/C=C/C=C/C=C3\CCC4(C)C3=[N+](CC(O)CS(=O)(=O)[O-])c3cccnc34)=C1N(CC(O)CS(=O)(=O)O)c1cccnc12 (stereo not drawn) [Compound 12] | 99.0 | A | > 500
2 | CC12CCC(/C=C/C=C/C3=CC(=C4\CCC5(C)C4=[N+](CC(O)CS(=O)(=O)O)c4ccc(S(=O)(=O)[O-])cc45)/CCC3)=C1N(CC(O)CS(=O)(=O)O)c1ccc(S(=O)(=O)O)cc12 (stereo not drawn) [Compound 37] | 99.0 | A | > 500
3 | CC1(C)C(/C=C/C=C/C=C/C=C2/N(CCCCS(=O)(=O)[O-])c3ccc4ccccc4c3C2(C)C)=[N+](CCCCS(=O)(=O)[O-])c2ccc3ccccc3c21.[Na+] [Compound C-1, indoaniline green] | 99.0 | C | < 500
4 | CC1(C)C(/C=C/C=C/C=C/C=C2/N(CCCCS(=O)(=O)O)c3ccc4cc(S(=O)(=O)O)cc(S(=O)(=O)[O-])c4c3C2(C)C)=[N+](CCCCS(=O)(=O)O)c2ccc3cc(S(=O)(=O)O)cc(S(=O)(=O)O)c3c21 [Compound C-2] | 97.0 | B | > 500
